Data as given in patent publication US7754748B2, “Method for treating obesity” (Duke University, priority 2002, dated 2010).
One block for each compound: values may come before it.

Experiments:
[1] = Example 2 case: obese person, bupropion then zonisamide added; type: in vivo, human
Description: At this point, zonisamide was added to the regimen at 100 mg/day and the dose was increased after 2 weeks to 200 mg/day. […] No further information is available as the patient has relocated.

[2] = Example 4 case: obese person, zonisamide then bupropion added; type: in vivo, human
Description: An obese person received zonisamide in a clinical trial and achieved weight loss of 35.6 lb over 32 weeks. During the 5 weeks following discontinuation of zonisamide, they gained 7.7 lb. Zonisamide was restarted, but this intervention was unsuccessful in offsetting the regained weight; after 16 weeks of therapy at doses up to 400 mg/d, the patient gained 1.2 lb.

[3] = optional 16-week single-blinded extension phase (to Week 32), zonisamide vs placebo in obese subjects; type: in vivo, human; conditions: for mean weight loss at Week 32: placebo 1.82% (0.73%)
Description: (§1) The study had two phases. The first was the acute phase—a 16-week, randomized, double blind, parallel-group comparison of zonisamide (ZON) and placebo (PBO). This was followed by an optional 16-week extension phase. At the end of the acute phase, subjects wishing to continue further received the same treatment for an additional 16 weeks in a single-blinded fashion.
(§2) During each visit, the following assessments were performed: blood pressure, heart rate, weight, dietary compliance, medication accountability and tolerability, and adverse effects. Body weight was measured on a calibrated electronic scale to the nearest 0.1 kilogram. A registered dietitian reviewed food diaries and assessed dietary compliance. Adverse effects were gathered via spontaneous reporting by subjects as well as open-ended inquiries by the clinicians.
In addition to the above, the subjects completed the Impact of Weight on Quality of Life (IWQOL) (Kolotin et al, Obesity Res. 3:49-56 (1995)) at baseline, Week 8, and Week 16. The IWQOL is a self-report measure with 74 items that assess the perceived effect of weight on quality of life in the following domains (subscales)—health, social/interpersonal life, work, mobility, self-esteem, sexual life, activities of daily living, and eating (comfort with food). Improvement with treatment is reflected by decreasing scores on all the subscales with the exception of the eating (comfort with food) subscale, which is expected to show less comfort around food with effective treatment. Body composition (fat and lean masses) and bone mineral density (BMD) were determined, at baseline and Week 32, by dual x-ray absorptiometry (DXA; Hologic 2000, Waltham, Mass.). All DXA measurements were gathered using the same equipment and techniques. Subjects were instructed to fast for 8 hours and not to drink water or other beverages for at least 4 hours prior to DXA measurement.
Weight change during the study was assessed in terms of actual weight change over the six study intervals using multivariable regression methodology, and as a dichotomous outcome of ‘response,’ i.e., 5% weight loss at Week 16, and 5% and 10% weight loss at Week 32. The proxy variables denoting response status were tested across treatment conditions again using Fisher's exact test. Three multivariable regression analyses were conducted. In the first, body weight at each time point was modeled using a random effects growth curve model. Heuristically, the model fits a regression line for each subject using available data points, thus maximizing use of actual data. For the second set of analyses, body weights were regressed as above with missing observations carried forward from the last recorded weight based on an intent-to-treat approach (LOCF). The final model was restricted to the subset of respondents with no missing data (completers).
Secondary analyses were conducted over three general areas of interest. In each case, analyses were based on 2×2 repeated measures ANOVAs that included time, drug condition, and their interaction (time-by-drug). The primary interest in each instance was to determine if subjects in the zonisamide condition were differentially affected relative to controls as operationally determined by testing the significance of the estimated interaction term. Tests in first area of interest focused on clinical indicators including levels of creatinine, glucose, triglycerides, high and low density lipoproteins (all assessed at baseline and study conclusion), waist measurements (baseline, Week 8 and Week 16), blood pressure (systolic and diastolic), and heart rate. The second general area of sampled quality of life indicators including activities of daily living, appetite, esteem, health, interpersonal relations, mobility, sex, and work using the IWQOL Scale; repeated measurements were taken at baseline, Week 8, and Week 16). The final set of secondary analyses sampled hunger and appetite using the Visual Analogue Scale for Hunger and Food Cravings. […]

[4] = epileptic patients taking other concomitant AEDs; small percent of patients; cited from earlier work
[5] = 16-week randomized, double blind acute phase, zonisamide vs placebo in obese subjects; type: in vivo, human
Text: Sixty-eight subjects were screened for participation and 60 subjects were randomized.
Inclusion criteria were: male or female, aged 21-50 years, with body mass index (BMI) of ≧30 kg/m^2.
as §1
The subjects were randomized in a 1:1 ratio to receive zonisamide or placebo capsules. Study medication was dispensed under blinded conditions through computer-based randomization. The randomization was generated using a random number table with a block size of ten. There was no stratification by gender or other demographics. The study investigators were blind to the “blocking” method used by the pharmacy. The treatment assignment codes were not available to the investigators until all subjects completed the acute phase, the data were entered, and the database for this phase was locked, meaning that no further changes could be made to the data.
The study medication was dispensed in the form of capsules. Each capsule contained either 100 milligrams zonisamide or placebo. The capsules were made to look identical. The dose escalation was as follows: one capsule (zonisamide 100 mg or placebo) every evening for the first 2 weeks; two capsules (zonisamide 200 mg or placebo) every evening during Weeks 3 and 4; three capsules (zonisamide 300 mg or placebo) every evening during Weeks 5 and 6; and, four capsules (zonisamide 400 mg or placebo) every evening from Week 7 onward. At Week 12, the dose could be increased further to six capsules (zonisamide 600 mg or placebo) every evening for subjects who had not lost at least 5% of their initial body weight. If a subject preferred not to take all six capsules at one time, taking a half of the daily dose in the morning was an option. Based on tolerability, dose escalation could be withheld, or the dose might also be decreased. Medication compliance was overseen by recording the number of tablets returned and comparing this number to the number of capsules dispensed at each visit.
Subjects in both treatment groups were instructed to follow an individual diet that was 500 Kcal/day less than what they needed to maintain their weight. The prescribed diet, based on eating a variety of foods from the Food Guide Pyramid, emphasized decreasing portions, eating more fruits and vegetables, and drinking 8 cups of water each day. Increased physical activity was also encouraged for subjects in both groups. Subjects were asked to record their dietary intake including portion sizes in food diaries, which were provided to them. A registered dietician reviewed food diaries and provided counseling to all subjects. Subjects were encouraged to make healthy changes in their diets and physical activity that could be maintained after the completion of the study.
as §2
In addition to the above, the subjects completed the Impact of Weight on Quality of Life (IWQOL) (Kolotin et al, Obesity Res. 3:49-56 (1995)) at baseline, Week 8, and Week 16. The IWQOL is a self-report measure with 74 items that assess the perceived effect of weight on quality of life in the following domains (subscales)—health, social/interpersonal life, work, mobility, self-esteem, sexual life, activities of daily living, and eating (comfort with food). […]

[6] = Example 3 case: obese person, zonisamide then bupropion SR added; type: in vivo, human
Description: An obese person (weight 246 lb, BMI 41.4 kg/m^2) who had not benefited from various treatments, was started on zonisamide 100 mg/day and the dose was increased gradually to 400 mg a day over the next 4 weeks. […] At this point, zonisamide dose was increased to 600 mg a day; the patient achieved an additional weight loss of 0.6 lb in the next month. Thus, after 3 months of zonisamide therapy, the total weight loss with zonisamide therapy was 5.2 lb. […] They reported that they felt “full” after eating small portions of food, and had more energy.

[7] = optional 16-week single-blinded extension phase (to Week 32), zonisamide vs placebo in obese subjects; type: in vivo, human; conditions: Week 32, versus placebo; p<0.0030, p<0.0651, p<0.0019, P<0.0005

Structure (SMILES): CC(NC(C)(C)C)C(=O)c1cccc(Cl)c1 (centres unmarked) [bupropion]
- net weight loss ([1]; after 2 months on bupropion): 1.6 lbs
- weight lost ([1]; after one month, bupropion 150 mg twice a day, start weight 271 lb): 5 lbs
- weight regained ([1]; during the second month on bupropion): 3.4 lbs

- bone mineral density at lumbar vertebrae (L-BMD) ([3]; DXA, baseline vs Week 32): did not change over time
- serum creatinine after treatment ([3]; extension phase subjects, baseline 0.78 (0.03) mg/dL, placebo 0.75 to 0.77): 0.92 (0.03) mg/dL
- estimated rate of occurrence of kidney stones ([3]; for the duration of treatment in this study (approximately 8 months)): 62.5 per 1000 patient-years of exposure
- serum creatinine after treatment ([5]; acute phase, baseline 0.79 (0.03) mg/dL, placebo 0.76 to 0.79): 0.92 (0.03) mg/dL
- increase in serum creatinine ([5]; no further increase in the extension phase, no value exceeded upper limit of normal): approximately 16%
- subjects reporting fatigue ([5]; of 30, placebo 1, p<0.006): 10 subjects
Structure (SMILES): NS(=O)(=O)Cc1noc2ccccc12 [zonisamide]
- weight gained on restarted therapy ([2]; after 16 weeks of restarted zonisamide at doses up to 400 mg/d): 1.2 lb
- weight gained following discontinuation ([2]; during the 5 weeks following discontinuation of zonisamide): 7.7 lb
- weight loss ([2]; over 32 weeks, zonisamide in a clinical trial): 35.6 lb
- total bone mineral density ([3]; DXA, baseline vs Week 32, both groups, no difference between groups, not clinically significant): small, but statistically significant (p<0.017) increase
- mean lipid values ([3]; either treatment, significant reductions for some subjects): No clinically significant changes
- absolute weight at Week 32 ([3]; from 96.88 (3.01) kg, placebo 96.39 to 94.85 kg): 87.64 (2.95) kg
- subjects who lost >=10% weight at Week 32 ([3]; none of the placebo subjects, p<0.0004): Ten of 19
- heart rate ([3]; over 32 weeks): no significant change
- mean weight loss at Week 32 [3]: 9.4%
- mean weight loss at Week 32 ([3]; listed as Zonisamide): 9.37%
- weight loss observed as an adverse effect [4]: a small degree of weight loss
- heart rate change versus placebo ([5]; 16 weeks, overall sample decreased approximately 2 beats/min): no difference between the groups
- absolute weight at Week 16 ([5]; ITT-LOCF, baseline 98.17 (2.5) kg, placebo 97.75 to 96.86 kg): 92.28 (2.47) kg
- subjects achieving >=10% weight loss at Week 16 ([5]; ITT-LOCF, placebo 0/30, p<0.0053): 7/30
- subjects achieving >=5% weight loss at Week 16 (number) ([5]; ITT-LOCF, placebo 3 of 30, p<0.0003): 17 of 30
- subjects achieving >=5% weight loss at Week 16 (percent) ([5]; ITT-LOCF, placebo 10%): 57%
- predicted weight loss per week (drug-by-time interaction regression coefficient) ([5]; LOCF intent-to-treat imputation): 0.29 kg/wk
- mean (SE) estimated weight loss ([5]; Week 16, ITT analysis with LOCF, n=30, placebo 1.02% (0.40%), p<0.0001): 5.98%
- systolic and diastolic blood pressure readings ([5]; by four months): did not change
- weight loss, subjects completing the 16-week acute phase ([5]; completers, Week 16, placebo 1.30% (0.49%)): 6.61%
- predicted weight loss per week (drug-by-time interaction regression coefficient) ([5]; likelihood imputed model, versus placebo): > 0.3 kg
- predicted weight loss per week (drug-by-time interaction regression coefficient) ([5]; model based only on complete-data subjects): 0.21 kg/wk
- adverse effects (AEs) reported per subject, average ([5]; over the study period, placebo 1.6, p<0.125): 2.1
- tolerability ([5]; whole study): generally well tolerated
- total weight loss ([6]; after 3 months of zonisamide therapy): 5.2 lb
- weight lost ([6]; after one month, zonisamide up to 400 mg a day, start weight 246 lb): 4.6 lbs
- additional weight loss ([6]; in the next month, zonisamide 600 mg a day): 0.6 lb
- weight change during the second month ([6]; zonisamide 400 mg a day): no further weight loss
- Impact of Weight on Quality of Life (IWQOL): Health, Work, Mobility, Activities of Daily Living [7]: improved more significantly
